Tests used:
[1] = system: Klebsiella pneumoniae; experiment: Anti-Klebsiella pneumoniae activity in the adult mouse; format: in vivo; settings: for anti-infectious activity with respect to Klebsiella pneumoniae (in words) / % Protection / Number of mice D + 3 (survivors) / Number of mice D + 5 (survivors) / Number of mice D + 10 (survivors): adult mouse; for anti-infectious activity with respect to Klebsiella pneumoniae (in words): summary of Table 3; for % Protection / Number of mice D + 3 (survivors) / Number of mice D + 5 (survivors) / Number of mice D + 10 (survivors): i.v.
Procedure: An experimental procedure was studied by CHEDID L. et coll. in "Proc. Natl. Acad. Sci. USA," 1977, 74: 2089, which permits the stimulating effect or not to be observed of substances studied with regard to immune defenses according as they protect or not the mice to which they are injected, the mice being inoculated by a dose of Klebsiella pneumoniae which results in the death of almost all of the controls.
(§1) The testing procedure is described in the article CHEDID L. et coll., Proc. Natl. Acad. Sci. USA, 74:2089.
(§2) It was shown that a dose of about 10^4 Klebsiella pneumoniae, injected by the intramuscular route in mice, results in the gradual death of a considerable part, if not all, of the animals in the week following the inoculation. After 8 days, the survival of the animals was definitely achieved.
The survival of groups of inoculated mice under the above conditions and treated by means of the products according to the invention was followed.
For these tests, hybrid mice (C57B1/6×AKR) FI bred at the PASTEUR INSTITUTE, from strains derived from the CNRS breeding station at ORLEANS, were used.
(§3) The infection by Klebsiella pneumoniae, a strain of the capsular 2, biotype d type, was done from a culture of 16 hours in a medium for pneumococci (No. 53515, PASTEUR INSTITUTE).
(§4) Various treatment conditions and tests have been studied. Thus, the treatment was carried out either 24 hours before the test, or 1 hour after the latter. The influence of the infecting dose and the mode of administration has also been studied. In particular, the protective properties of the products have been determined in the case of an injection of Klebsiella pneumoniae by the intravenous route, which corresponds to a severe infection.
(§5) In the majority of cases, the tests have been carried out on mice aged from 5 to 6 weeks. In one part of the tests, on the other hand, mice 7 days old were used, since the immune responses, in very young subjects are substantially different, and, on the whole, much more difficult to stimulate than those that are observed in adult subjects.
(§6) The products are administered in apyrogenic physiological solution in the proportion of 0.2 ml for intravenous administration to adult mice and 0.05 ml for sub-cutaneous injection to mice 7 days old. The controls received the solution alone.
(§7) The percentage protection indicated corresponds to the difference in percentages of survivors of the treated group with respect to the control group.

[2] = system: ovalbumin; experiment: Adjuvant character in emulsion: delayed hypersensitivity cutaneous test; format: in vivo, Hartley guinea pigs; settings: emulsion with 1 mg ovalbumin, intradermal; product 50 μg in FIA; challenge day 18, read 48 hours later
Procedure: (§8) The tests were carried out on batches of 6 male Hartley guinea pigs of 350 g. The administration was done by intradermal injection into the plantar pad of each of the rear paws. Ovalbumin (constituting the antigen) in the amount of 1 mg is prepared in 0.1 ml of an emulsion of saline isotonic solution, in an oily phase constituted either by the Freund incomplete adjuvant (FIA) or by the complete adjuvant (FCA) formed by the FIA to which is added 0.1 mg of whole Mycobacterium smegmatis cells. The compound according to the invention was administered in the amount of 0.05 mg added in the emulsion containing the FIA.
Eighteen days after this immunization, possible delayed hypersensitivity reactions to the antigen were sought by injecting by the intradermal route 0.01 mg of ovalbumin in the side of the animals, and 48 hours later, the reaction of the point of injection was observed. The diameter in millimeters of the reaction thus-caused was measured.

[3] = system: ovalbumin; experiment: Adjuvant character in emulsion: serum antibodies specific for ovalbumin; format: in vivo, Hartley guinea pigs; settings: emulsion with 1 mg ovalbumin, intradermal; product 50 μg in FIA; day 21; μg nitrogen precipitatable by antigen per ml serum
Procedure: as §8
Twenty-one days after the injection, the animals were bled. On the collected serum, the content of specific antibodies of the ovalbumin was measured by precipitation of the antibody-antigen complex in the equivalence zone. The amount of protein nitrogen contained in the precipitate was estimated by the Folin method. These values express the amount, in micrograms, of nitrogen precipitatable by the antigen, per milliliter of the serum.

[4] = system: bovine serum albumin (BSA); experiment: Adjuvant character in the aqueous phase (anti-BSA antibody titer, passive hemagglutination); format: in vivo, Swiss mice; settings: 100 μg adjuvant s.c. with 0.5 mg BSA in isotonic saline; booster day 30; six days after booster; maximum serum dilution agglutinating
Procedure: Groups of 8 Swiss mice aged two months received, by sub-cutaneous injection (SC), 0.5 mg of antigen constituted by bovine serum albumin (BSA) with 0.1 mg or without the tested substance in an isotonic saline solution. This high dose of antigen, because it is situated at the limit of the paralyzing dose with respect to the immunitary response, results, for this reason, in a weak or zero response to the antigen only in the controls: It constitutes therefore a severe criterion to establish the activity of an adjuvant substance. Thirty days later, the mice received, by the same administrative route, a booster containing 0.1 mg of the same antigen.
The antibody level was determined, six days after the booster, by passive hemagglutination using sheep's red blood corpuscles treated with formalin and covered with the antigen studied according to the method described by A. A. HIRATA and M. W. BRANDISS (J. Immunol., 100, 641-648, 1968).
The antibody titer, represented by the maximum serum dilution agglutinating a given amount of sheep corpuscles, reaches a maximum at the 36th day. The results obtained for various products according to the invention are shown in Table I. By way of comparison, the results obtained with MDP are indicated, on the one hand, and for PAP-MDP, on the other hand.

[5] = system: Listeria monocytogenes; experiment: Anti-Listeria monocytogenes activity in the adult mouse; format: in vivo; settings: Listeria i.v. 10^3, treatment D-1, i.v.
Procedure: Under similar conditions to those of the tests of (4), the influence of the administration of the oligomer of p.aminophenyl-glycoside MDP was determined on the mortality of mice in which a dose of Listeria monocytogenes is administered, known for generating typically an infection of cellular type. As previously, the action of the product according to the invention was compared with that of Corynebacterium granulosum of which the anti-infectious properties are well known in this field. It was also determined, still by way of comparison, the action of Mur-NAc-L-Ala-D-isoGln (MDP).
The treatment of the mice and the inoculation were carried out intravenously. The injected products were in solution or suspension in 0.2 ml of apyrogenic physiological solution. The controls only received the solution.
The dose of Listeria administered was, in all the tests, 1.10^3 units.
The test whose results are given below have been carried out varying the doses of the tested products and the interval of time separating the treatment of inoculation of the Listeria monocytogenes (either 1, or 7 days). The number of surviving mice at the fifth and the tenth day following the inoculation was followed, and the percentage protection determined as for the preceding tests.

[6] = system: Klebsiella pneumoniae; experiment: Anti-Klebsiella pneumoniae activity in the 7 day old mouse; format: in vivo; settings: for % Protection / Number of mice D + 3 (survivors) / Number of mice D + 5 (survivors) / Number of mice D + 10 (survivors): 100 μg
Description: as §1, §2, §3, §4, §5, §6, §7
The results reported in the following table represent the tests carried out in mice aged 7 days.

[7] = system: suprarenalectomized mouse; experiment: Toxicity, intravenous injection in the suprarenalectomized mouse; format: in vivo
Description: The toxicity of the products according to the invention were studied by parenteral administration in mice. It was observed that the toxic doses were of an order of magnitude very much higher than that of the doses at which these products manifest their activity.
In addition, the activity/toxicity ratio is very favorable in the case of the pol-PAP-MDP, as appears when one considers the results of the tests reported below.

[8] = system: Limulus amoebocyte lysate; experiment: Limulus test (endotoxic type activity, gel formation)
Procedure: To show the absence of activity of the endotoxic type, products according to the invention were subjected to the Limulus test. For this purpose, 0.1 ml of the Limulus amoebocyte lysate preparation (marketed by the MALLINCKRODT Company, at Saint Louis, U.S.A.) was mixed with an equal volume of the tested product at various concentrations in solution in apyrogenic distilled water. The vessels used were also made apyrogenic by dry heating in the oven, at 180° C., for 2 hours.
After incubating the mixture for 20 minutes at 37° C. in tubes, the formation of gel characteristic of the presence of endotoxin was estimated.
A test is positive when the presence of a firm gel is observed which remains adherent to the bottom of the tube when the latter is inverted (technique described by Elin R. J. and Wolff S. M., J. Infect. Dis., 1973, 126: 349).

[9] = infection i.m. 1.5 × 10^4, treatment -24 h, 100 μg
[10] = infection i.v. 1.5 × 10^3, treatment -24 h, 100 μg
[11] = infection i.m. 1.5 × 10^4, treatment +1 h, 10 μg
[12] = infection i.m. 1.5 × 10^4, treatment +1 h, 100 μg
[13] = infection i.m. 1.5 × 10^4, treatment -24 h, 10 μg
[14] = infection i.v. 1.5 × 10^3, treatment -24 h, 10 μg
[15] = infection i.v. 1.5 × 10^5, treatment -24 h, 100 μg
[16] = infection i.v. 2.5 × 10^2, treatment -24 h, s.c.
[17] = infection s.c. 10^3, treatment -24, s.c.

Compound: CC(=O)N[C@H]1[C@H](Oc2ccc(N)cc2)O[C@H](CO)[C@@H](O)[C@@H]1O[C@H](C)C(=O)N[C@@H](C)C(=O)N[C@H](CCC(=O)O)C(N)=O [PAP-MDP, β-D-p.aminophenyl glycoside of N-acetyl-muramyl-L-alanyl-D-isoglutamine, reference compound]
- anti-infectious activity with respect to Klebsiella pneumoniae (in words) [1]: practically not
- % Protection [1, 9]: 19%
- Number of mice D + 3 (survivors) [1, 9]: 28
- Number of mice D + 5 (survivors) [1, 9]: 17
- Number of mice D + 10 (survivors) [1, 9]: 11
- % Protection [1, 10]: 0%
- Number of mice D + 3 (survivors) [1, 10]: 6
- Number of mice D + 5 (survivors) [1, 10]: 2
- Number of mice D + 10 (survivors) [1, 10]: 2
- Cutaneous test diameter in mm [2]: 14.4 mm
- Serum antibodies [3]: 3480 µg/mL
- Antibody titer [4]: 11

Compound: N^ε.N^ε' 'bis(N-acetyl-muramyl-L-alanyl-D-isoglutamine-L-lysine)-adipimidyl, dichlorohydrate [Adipimidyl-bis-MDP-Lys]
- % Protection [1, 9]: 44%
- Number of mice D + 3 (survivors) [1, 9]: 27
- Number of mice D + 5 (survivors) [1, 9]: 23
- Number of mice D + 10 (survivors) [1, 9]: 22
- Cutaneous test diameter in mm [2]: 17 mm
- Serum antibodies [3]: 6000 µg/mL
- Antibody titer [4]: 200

Compound: polymer of β-D-p.aminophenyl-glycoside of Mur-NAc-L-Ala-D-isoGln [Pol (PAP-MDP)]
- anti-infectious activity with respect to Klebsiella pneumoniae (in words) [1]: anti-infectious
- % Protection [1, 11]: 50%
- Number of mice D + 3 (survivors) [1, 11]: 16
- Number of mice D + 5 (survivors) [1, 11]: 13
- Number of mice D + 10 (survivors) [1, 11]: 11
- % Protection [1, 12]: 81%
- Number of mice D + 3 (survivors) [1, 12]: 16
- Number of mice D + 5 (survivors) [1, 12]: 16
- Number of mice D + 10 (survivors) [1, 12]: 16
- % Protection [1, 13]: 58%
- Number of mice D + 3 (survivors) [1, 13]: 24
- Number of mice D + 5 (survivors) [1, 13]: 21
- Number of mice D + 10 (survivors) [1, 13]: 19
- % Protection [1, 9]: 72%
- Number of mice D + 3 (survivors) [1, 9]: 24
- Number of mice D + 5 (survivors) [1, 9]: 24
- Number of mice D + 10 (survivors) [1, 9]: 22
- % Protection [1, 14]: 16%
- Number of mice D + 3 (survivors) [1, 14]: 22
- Number of mice D + 5 (survivors) [1, 14]: 17
- Number of mice D + 10 (survivors) [1, 14]: 9
- % Protection [1, 10]: 75%
- Number of mice D + 3 (survivors) [1, 10]: 15
- Number of mice D + 5 (survivors) [1, 10]: 14
- Number of mice D + 10 (survivors) [1, 10]: 14
- % Protection [1, 15]: 12%
- Number of mice D + 3 (survivors) [1, 15]: 12
- Number of mice D + 5 (survivors) [1, 15]: 4
- Number of mice D + 10 (survivors) [1, 15]: 3
- active dose (anti-infectious activity) ([1]; as stated in the Limulus discussion): 10 μg per mouse
- % Protection ([5]; 10 μg): 29%
- Number of mice D + 5 (survivors) ([5]; 10 μg): 10
- Number of mice D + 10 (survivors) ([5]; 10 μg): 6
- % Protection ([5]; 100 μg): 71%
- Number of mice D + 5 (survivors) ([5]; 100 μg): 23
- Number of mice D + 10 (survivors) ([5]; 100 μg): 19
- % Protection [6, 16]: 41%
- Number of mice D + 3 (survivors) [6, 16]: 14
- Number of mice D + 5 (survivors) [6, 16]: 10
- Number of mice D + 10 (survivors) [6, 16]: 9
- % Protection [6, 17]: 34%
- Number of mice D + 3 (survivors) [6, 17]: 22
- Number of mice D + 5 (survivors) [6, 17]: 19
- Number of mice D + 10 (survivors) [6, 17]: 19
- anti-infectious activity with respect to Klebsiella pneumoniae (in words) ([6]; summary of Table 4): notable anti-infectious activity
- lethal dose 50 [7]: higher than 100 μg
- times less toxic than endotoxin extracted from E. coli [7]: 5000 times
- Antibody titer [4]: 50
- times less active than the LPS on Limulus test [8]: 500,000 times
- concentration leading to a positive response (Limulus test) ([8]; 20 minutes at 37° C., firm gel): ~15000 ng/mL
